Test results as given in PubChem BioAssay (NCI).
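Each compound was tested at five concentrations against cells in 96-well plates for 48 hours. GI50 marks 50% less growth. The concentration for full growth arrest is given as TGI.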

Tests used:
Test in all cases: NCI-60 cell line screen, 48 h
SN12C renal = system: SN12C renal
HCT-15 colon = system: HCT-15 colon
DU-145 prostate = system: DU-145 prostate
MOLT-4 leukemia = system: MOLT-4 leukemia
NCI-H522 lung = system: NCI-H522 lung
SF-539 CNS = system: SF-539 CNS
HOP-62 NSCLC = system: HOP-62 NSCLC
UACC-62 melanoma = system: UACC-62 melanoma
SF-295 CNS = system: SF-295 CNS
K-562 leukemia = system: K-562 leukemia
HT29 colon = system: HT29 colon
TK-10 renal = system: TK-10 renal
CAKI-1 renal = system: CAKI-1 renal
RPMI-8226 leukemia = system: RPMI-8226 leukemia
786-0 renal = system: 786-0 renal
IGROV1 ovarian = system: IGROV1 ovarian
UACC-257 melanoma = system: UACC-257 melanoma
SK-MEL-5 melanoma = system: SK-MEL-5 melanoma
MCF7 breast = system: MCF7 breast
COLO 205 colon = system: COLO 205 colon
SNB-75 CNS = system: SNB-75 CNS
MDA-MB-435 = system: MDA-MB-435
BT-549 breast = system: BT-549 breast
HOP-92 NSCLC = system: HOP-92 NSCLC
NCI/ADR-RES ovarian = system: NCI/ADR-RES ovarian
OVCAR-3 ovarian = system: OVCAR-3 ovarian
NCI-H226 lung = system: NCI-H226 lung
ACHN renal = system: ACHN renal
SK-MEL-28 melanoma = system: SK-MEL-28 melanoma
HCC-2998 colon = system: HCC-2998 colon
MDA-MB-231 breast = system: MDA-MB-231 breast
RXF 393 renal = system: RXF 393 renal
T-47D breast = system: T-47D breast
LOX IMVI melanoma = system: LOX IMVI melanoma
SW-620 colon = system: SW-620 colon
MALME-3M melanoma = system: MALME-3M melanoma
EKVX NSCLC = system: EKVX NSCLC
OVCAR-4 ovarian = system: OVCAR-4 ovarian
KM12 colon = system: KM12 colon
SK-OV-3 ovarian = system: SK-OV-3 ovarian
U251 CNS = system: U251 CNS
OVCAR-8 ovarian = system: OVCAR-8 ovarian
SNB-19 CNS = system: SNB-19 CNS
SF-268 CNS = system: SF-268 CNS
PC-3 prostate = system: PC-3 prostate
A549 NSCLC = system: A549 NSCLC
M14 melanoma = system: M14 melanoma
A498 renal = system: A498 renal
SR leukemia = system: SR leukemia
SK-MEL-2 melanoma = system: SK-MEL-2 melanoma
OVCAR-5 ovarian = system: OVCAR-5 ovarian
UO-31 renal = system: UO-31 renal
HL-60(TB) leukemia = system: HL-60(TB) leukemia
NCI-H460 lung = system: NCI-H460 lung
HS 578T breast = system: HS 578T breast

## Cc1ncn(-c2ccc(/C=N/Nc3ccnc4cc(Cl)ccc34)cc2)c1C
SN12C renal
  GI50: 1.75 µM
  TGI: 3.47 µM
HCT-15 colon
  GI50: 1.8 µM
  TGI: 3.73 µM
DU-145 prostate
  GI50: 1.88 µM
  TGI: 3.7 µM
MOLT-4 leukemia
  GI50: 1.94 µM
  TGI: 5.12 µM
NCI-H522 lung
  GI50: 1.8 µM
  TGI: 3.39 µM
SF-539 CNS
  GI50: 1.82 µM
  TGI: 3.24 µM
HOP-62 NSCLC
  GI50: 1.74 µM
  TGI: 3.2 µM
UACC-62 melanoma
  GI50: 1.74 µM
  TGI: 3.24 µM
SF-295 CNS
  GI50: 1.88 µM
  TGI: 3.52 µM
K-562 leukemia
  GI50: 2.07 µM
  TGI: 8.07 µM
HT29 colon
  GI50: 1.69 µM
  TGI: 3.33 µM
TK-10 renal
  GI50: 1.85 µM
  TGI: 3.36 µM
CAKI-1 renal
  GI50: 1.63 µM
  TGI: 2.99 µM
RPMI-8226 leukemia
  GI50: 1.99 µM
  TGI: 4.52 µM
786-0 renal
  GI50: 1.61 µM
  TGI: 3.25 µM
IGROV1 ovarian
  GI50: 1.97 µM
  TGI: 3.82 µM
UACC-257 melanoma
  GI50: 1.7 µM
  TGI: 3.11 µM
SK-MEL-5 melanoma
  GI50: 2.07 µM
  TGI: 4.38 µM
MCF7 breast
  GI50: 1.54 µM
  TGI: 3.41 µM
COLO 205 colon
  GI50: 1.74 µM
  TGI: 3.28 µM
SNB-75 CNS
  GI50: 1.51 µM
  TGI: 2.89 µM
MDA-MB-435
  GI50: 1.65 µM
  TGI: 3.05 µM
BT-549 breast
  GI50: 1.83 µM
  TGI: 3.44 µM
HOP-92 NSCLC
  GI50: 1.59 µM
  TGI: 3.21 µM
NCI/ADR-RES ovarian
  GI50: 2.07 µM
  TGI: 5.04 µM
OVCAR-3 ovarian
  GI50: 1.83 µM
  TGI: 3.75 µM
NCI-H226 lung
  GI50: 2.42 µM
  TGI: 6.87 µM
ACHN renal
  GI50: 1.79 µM
  TGI: 3.18 µM
SK-MEL-28 melanoma
  GI50: 1.65 µM
  TGI: 3.09 µM
HCC-2998 colon
  GI50: 1.92 µM
  TGI: 3.52 µM
MDA-MB-231 breast
  GI50: 2.08 µM
  TGI: 3.84 µM
RXF 393 renal
  GI50: 1.46 µM
  TGI: 2.87 µM
T-47D breast
  GI50: 1.83 µM
  TGI: 3.83 µM
LOX IMVI melanoma
  GI50: 2.19 µM
  TGI: 3.98 µM
SW-620 colon
  GI50: 1.63 µM
  TGI: 3.54 µM
MALME-3M melanoma
  GI50: 1.93 µM
  TGI: 3.61 µM
EKVX NSCLC
  GI50: 3.45 µM
  TGI: 18 µM
OVCAR-4 ovarian
  GI50: 1.67 µM
  TGI: 3.19 µM
KM12 colon
  GI50: 2.38 µM
  TGI: 5.79 µM
SK-OV-3 ovarian
  GI50: 1.8 µM
  TGI: 3.36 µM
U251 CNS
  GI50: 1.59 µM
  TGI: 2.99 µM
OVCAR-8 ovarian
  GI50: 1.87 µM
  TGI: 3.67 µM
SNB-19 CNS
  GI50: 1.88 µM
  TGI: 3.88 µM
SF-268 CNS
  GI50: 1.86 µM
  TGI: 3.96 µM
PC-3 prostate
  GI50: 1.72 µM
  TGI: 3.37 µM
A549 NSCLC
  GI50: 1.7 µM
  TGI: 3.16 µM
M14 melanoma
  GI50: 1.81 µM
  TGI: 3.48 µM
A498 renal
  GI50: 6.49 µM
  TGI: 20.2 µM
SR leukemia
  GI50: 1.24 µM
  TGI: 4.57 µM
SK-MEL-2 melanoma
  GI50: 1.73 µM
  TGI: 3.22 µM
OVCAR-5 ovarian
  GI50: 3.03 µM
  TGI: 10 µM
UO-31 renal
  GI50: 1.64 µM
  TGI: 3.03 µM
HL-60(TB) leukemia
  GI50: 1.56 µM
  TGI: 3.77 µM
NCI-H460 lung
  GI50: 1.78 µM
  TGI: 3.57 µM
HS 578T breast
  GI50: 2.01 µM
  TGI: 4.48 µM
